Values quoted from earlier work, collected in patent publication US20250231185A1, “Coronavirus T Cell Epitopes, Megapools and Uses Thereof” (La Jolla Institute for Immunology, priority 2021, published 2025).
Like-named read-outs stand apart in the source and are kept apart here.

Test system: CD8+ T cells
Settings: cited from earlier work
[1] = T cell type (CD4 or CD8) recognizing the SARS-CoV-2 epitope
[2] = T cell subset (CD4 or CD8) recognizing the SARS-CoV-2-derived epitope
[3] = CD8RE megapool peptides (non-spike SARS-CoV-2 antigens), dominant epitope Yes/No
[4] = SARS-CoV-2 Ag S, T cell type recognizing the epitope
[5] = SARS-CoV-2-derived CD8 epitopes, dominant = recognized by 3 or more donors/different studies
[6] = CD8R (D) megapool epitopes, dominant = recognized by 3 or more donors/different studies

## 919 (VPANSTVLSF) [compound 919]
[1]
  Restriction: CD8

## 569 (EEIAIILASF) [compound 569]
[2]
  Restriction: CD8

## 3045 (HLVDFQVTI) [compound 3045]
[3]
  Dominant: Yes (more dominant epitopes are defined by being recognized by 3 or more donors/different studies)

## 2941 (ILLNKHIDA) [compound 2941]
[3]
  Dominant: Yes (more dominant epitopes are defined by being recognized by 3 or more donors/different studies)

## 586 (QGYKSVNITF) [compound 586]
[2]
  Restriction: CD8

## 656 (KPHNSHEGKTF) [compound 656]
[2]
  Restriction: CD8

## 1459 (YEQYIKWPW) [compound 1459]
[4]
  Restriction: CD8

## 687 (CTEIDPKLDNY) [compound 687]
[5]
  Dominant: Yes (more dominant epitopes are defined by being recognized by 3 or more donors/different studies)
[2]
  Restriction: CD8

## 573 (ITILDGISQY) [compound 573]
[2]
  Restriction: CD8

## 949 (SFGPLVRKI) [compound 949]
[1]
  Restriction: CD8

## 1439 (VFVSNGTHW) [compound 1439]
[4]
  Restriction: CD8

## 3027 (FTYASALWEI) [compound 3027]
[3]
  Dominant: Yes (more dominant epitopes are defined by being recognized by 3 or more donors/different studies)

## 2969 (VVYRGTTTYK) [compound 2969]
[3]
  Dominant: Yes (more dominant epitopes are defined by being recognized by 3 or more donors/different studies)

## 1742 (TYACWHHSI) [compound 1742]
[6]
  Dominant: Yes (more dominant epitopes are defined by being recognized by 3 or more donors/different studies)

## 1808 (FTSDYYQLY) [compound 1808]
[6]
  Dominant: Yes (more dominant epitopes are defined by being recognized by 3 or more donors/different studies)

## 1302 (GNYNYLYRLF) [compound 1302]
[4]
  Restriction: CD8

## 1818 (LEYHDVRVVL) [compound 1818]
[6]
  Dominant: Yes (more dominant epitopes are defined by being recognized by 3 or more donors/different studies)

## 507 (YGANKDGIIW) [compound 507]
[2]
  Restriction: CD8

## 3016 (GTDLEGNFY) [compound 3016]
[3]
  Dominant: Yes (more dominant epitopes are defined by being recognized by 3 or more donors/different studies)

## 985 (LRIMASLVL) [compound 985]
[1]
  Restriction: CD8

## 542 (MEVTPSGTWL) [compound 542]
[5]
  Dominant: Yes (more dominant epitopes are defined by being recognized by 3 or more donors/different studies)
[2]
  Restriction: CD8

## 1382 (ADAGFIKQY) [compound 1382]
[4]
  Restriction: CD8

## 619 (KIAEIPKEEV) [compound 619]
[2]
  Restriction: CD8

## 541 (MEVTPSGTW) [compound 541]
[5]
  Dominant: Yes (more dominant epitopes are defined by being recognized by 3 or more donors/different studies)
[2]
  Restriction: CD8

## 1410 (AEVQIDRLI) [compound 1410]
[4]
  Restriction: CD8

## 661 (TTDPSFLGRY) [compound 661]
[5]
  Dominant: Yes (more dominant epitopes are defined by being recognized by 3 or more donors/different studies)
[2]
  Restriction: CD8

## 595 (FEPSTQYEY) [compound 595]
[2]
  Restriction: CD8

## 1073 (TTLPVNVAF) [compound 1073]
[1]
  Restriction: CD8

## 915 (GPKVKYLYF) [compound 915]
[1]
  Restriction: CD8

## 529 (ELIRQGTDY) [compound 529]
[2]
  Restriction: CD8

## 1075 (GRVDGQVDL) [compound 1075]
[1]
  Restriction: CD8

## 1070 (NTFTRLQSL) [compound 1070]
[1]
  Restriction: CD8

## 1805 (YLYALVYFL) [compound 1805]
[6]
  Dominant: Yes (more dominant epitopes are defined by being recognized by 3 or more donors/different studies)

## 587 (FELDERIDKV) [compound 587]
[2]
  Restriction: CD8

## 1773 (FLPRVFSAV) [compound 1773]
[6]
  Dominant: Yes (more dominant epitopes are defined by being recognized by 3 or more donors/different studies)

## 1037 (IPARARVEC) [compound 1037]
[1]
  Restriction: CD8

## 1725 (FYAYLRKHF) [compound 1725]
[6]
  Dominant: Yes (more dominant epitopes are defined by being recognized by 3 or more donors/different studies)

## 1007 (LPYPDPSRIL) [compound 1007]
[1]
  Restriction: CD8

## 1385 (LLTDEMIAQY) [compound 1385]
[4]
  Restriction: CD8

## 629 (TDNYITTY) [compound 629]
[5]
  Dominant: Yes (more dominant epitopes are defined by being recognized by 3 or more donors/different studies)
[2]
  Restriction: CD8

## 2944 (LPAADLDDF) [compound 2944]
[3]
  Dominant: Yes (more dominant epitopes are defined by being recognized by 3 or more donors/different studies)

## 1337 (QLTPTWRVY) [compound 1337]
[4]
  Restriction: CD8

## 2952 (KLFDRYFKY) [compound 2952]
[3]
  Dominant: Yes (more dominant epitopes are defined by being recognized by 3 or more donors/different studies)

## 1426 (QSAPHGVVF) [compound 1426]
[4]
  Restriction: CD8

## 564 (IPVAYRKVLL) [compound 564]
[2]
  Restriction: CD8

## 1706 (ILLNKHIDA) [compound 1706]
[6]
  Dominant: Yes (more dominant epitopes are defined by being recognized by 3 or more donors/different studies)

## 1704 (MEVTPSGTW) [compound 1704]
[6]
  Dominant: Yes (more dominant epitopes are defined by being recognized by 3 or more donors/different studies)

## 1357 (NSIAIPTNF) [compound 1357]
[4]
  Restriction: CD8

## 1373 (EVFAQVKQIY) [compound 1373]
[4]
  Restriction: CD8

## 1736 (KLNVGDYFV) [compound 1736]
[6]
  Dominant: Yes (more dominant epitopes are defined by being recognized by 3 or more donors/different studies)

## 570 (AIILASFSAST) [compound 570]
[2]
  Restriction: CD8

## 3017 (VLAWLYAAV) [compound 3017]
[3]
  Dominant: Yes (more dominant epitopes are defined by being recognized by 3 or more donors/different studies)

## 1054 (PFMIDVQQW) [compound 1054]
[1]
  Restriction: CD8

## 955 (QTVKPGNFNK) [compound 955]
[1]
  Restriction: CD8

## 1684 (FPRGQGVPI) [compound 1684]
[6]
  Dominant: Yes (more dominant epitopes are defined by being recognized by 3 or more donors/different studies)

## 2999 (TTDPSFLGRY) [compound 2999]
[3]
  Dominant: Yes (more dominant epitopes are defined by being recognized by 3 or more donors/different studies)

## 932 (TLKEILVTY) [compound 932]
[1]
  Restriction: CD8

## 540 (GMEVTPSGTWLTY) [compound 540]
[5]
  Dominant: Yes (more dominant epitopes are defined by being recognized by 3 or more donors/different studies)
[2]
  Restriction: CD8

## TTDPSFLGRY [nsp3 819-828]
Nelde et al., HLA-A*01:01 restricted
  positive in donors tested: 83%

## 1333 (TSNQVAVLY) [compound 1333]
[4]
  Restriction: CD8

## 691 (YYKKDNSY) [compound 691]
[2]
  Restriction: CD8

## 565 (TFNGECPNF) [compound 565]
[2]
  Restriction: CD8

## 2955 (RQLLFVVEV) [compound 2955]
[3]
  Dominant: Yes (more dominant epitopes are defined by being recognized by 3 or more donors/different studies)

## 669 (YPQVNGLTSI) [compound 669]
[2]
  Restriction: CD8

## 2961 (RILGAGCFV) [compound 2961]
[3]
  Dominant: Yes (more dominant epitopes are defined by being recognized by 3 or more donors/different studies)

## 1369 (TQLNRALTGI) [compound 1369]
[4]
  Restriction: CD8

## 1771 (QLMCQPILLL) [compound 1771]
[6]
  Dominant: Yes (more dominant epitopes are defined by being recognized by 3 or more donors/different studies)

## 567 (GFMGRIRSV) [compound 567]
[2]
  Restriction: CD8

## 1695 (LLLLDRLNQL) [compound 1695]
[6]
  Dominant: Yes (more dominant epitopes are defined by being recognized by 3 or more donors/different studies)

## 1434 (VTYVPAQEK) [compound 1434]
[4]
  Restriction: CD8

## 640 (VSSPDAVTAY) [compound 640]
[2]
  Restriction: CD8

## 1678 (ATSRTLSYY) [compound 1678]
[6]
  Dominant: Yes (more dominant epitopes are defined by being recognized by 3 or more donors/different studies)

## 677 (VMYMGTLSY) [compound 677]
[2]
  Restriction: CD8

## 535 (FAPSASAFF) [compound 535]
[2]
  Restriction: CD8

## 959 (AAISDYDYY) [compound 959]
[1]
  Restriction: CD8

## ORF1ab 3183-3191: SARS-CoV-2 ORF1ab 3183-3191 CD8 epitope among 14 peptides screened in the Habel et al. study (FLLNKEMYL; CD8 epitope peptide; UniProt P0DTD1 3183-3191, looked up, fragment) [reference compound]
Habel et al., 14 peptides screened, HLA-A*02:01
  IFN-f response: less prominently recognized

## 1080 (FIPMDSTVKNY) [compound 1080]
[1]
  Restriction: CD8

## 3039 (ALSKGVHFV) [compound 3039]
[3]
  Dominant: Yes (more dominant epitopes are defined by being recognized by 3 or more donors/different studies)

## 1686 (RIRGGDGKMK) [compound 1686]
[6]
  Dominant: Yes (more dominant epitopes are defined by being recognized by 3 or more donors/different studies)

## 647 (HLDGEVITF) [compound 647]
[2]
  Restriction: CD8

## 2928 (VLQLPQGTTL) [compound 2928]
[3]
  Dominant: Yes (more dominant epitopes are defined by being recognized by 3 or more donors/different studies)

## 1438 (GVFVSNGTHW) [compound 1438]
[4]
  Restriction: CD8

## 983 (NMLRIMASL) [compound 983]
[1]
  Restriction: CD8

## 672 (ARAGEAANF) [compound 672]
[2]
  Restriction: CD8

## 1391 (WTFGAGAAL) [compound 1391]
[4]
  Restriction: CD8

## 1404 (SVLNDILSRL) [compound 1404]
[4]
  Restriction: CD8

## 517 (SSRGTSPAR) [compound 517]
[2]
  Restriction: CD8
